Results as given in patent US20050261273A1, “Substituted urea and carbamate, phenacyl-2-hydroxy-3-diaminoalkane, and benzamide-2-hydroxy-3-diaminoalkane aspartyl-protease inhibitors” (priority 2004, published 2005).

Tests used:
[1] = target: cathepsin D (catD) versus beta-secretase (BACE) (Homo sapiens, UniProt P07339); assay: CatD/BACE selectivity (ratio of IC50 values); type: biochemical; details: each value is an average of four experimental runs; multiple values = more than one experiment
Method: (§1) Investigation of potential beta-secretase inhibitors produced compounds with increased selectivity for beta-secretase over other aspartyl proteases such as cathepsin D (catD), cathepsin E (catE), Human Immunodeficiency Viral (HIV) protease, and renin. Selectivity was calculated as a ratio of inhibition (IC50) values in which the inhibition of beta-secretase was compared to the inhibition of other aspartyl proteases.
The compounds of formula (I) can be selective for beta-secretase versus catD.
(§2) In the following examples, each value is an average of four experimental runs and multiple values for one compoundd indicate that more than one experiment was conducted.

[2] = target: T1, cathepsin E (catE) versus beta-secretase (BACE) (Homo sapiens, UniProt P14091); assay: CatE/BACE selectivity (ratio of IC50 values); type: biochemical; details: each value is an average of four experimental runs; multiple values = more than one experiment
T1 sequence (P14091 54-396): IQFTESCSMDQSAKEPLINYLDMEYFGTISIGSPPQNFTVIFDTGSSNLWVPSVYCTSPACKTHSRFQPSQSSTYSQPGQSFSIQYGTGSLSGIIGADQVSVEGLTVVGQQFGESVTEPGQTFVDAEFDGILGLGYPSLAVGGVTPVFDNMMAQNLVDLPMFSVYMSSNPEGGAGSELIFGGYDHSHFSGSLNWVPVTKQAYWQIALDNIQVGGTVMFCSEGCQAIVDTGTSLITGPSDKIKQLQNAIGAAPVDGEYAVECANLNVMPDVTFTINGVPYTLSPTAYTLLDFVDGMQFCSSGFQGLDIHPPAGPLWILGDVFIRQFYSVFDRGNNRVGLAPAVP
Method: as §1
The compounds of formula (I) can be selective for beta-secretase versus catE. […] Selectivity is reported as the ratio of IC50(catE):IC50(BACE).
as §2

Sequence of cathepsin D (catD) versus beta-secretase (BACE) (P07339 65-412): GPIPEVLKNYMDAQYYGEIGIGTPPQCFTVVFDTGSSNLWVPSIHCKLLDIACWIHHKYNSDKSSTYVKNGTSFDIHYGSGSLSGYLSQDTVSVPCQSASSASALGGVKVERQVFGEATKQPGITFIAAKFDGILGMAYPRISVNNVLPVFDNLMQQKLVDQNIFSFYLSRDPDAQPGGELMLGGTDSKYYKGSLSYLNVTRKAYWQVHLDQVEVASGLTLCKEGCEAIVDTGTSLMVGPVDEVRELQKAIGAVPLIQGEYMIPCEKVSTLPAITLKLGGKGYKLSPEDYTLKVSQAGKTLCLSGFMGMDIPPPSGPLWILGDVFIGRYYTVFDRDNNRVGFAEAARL

| Compound | IC50 CatD/IC50 BACE [1] | IC50 CatE/IC50 BACE [2] |
| --- | --- | --- |
| CN(c1cccc(C(=O)NC(Cc2cc(F)cc(F)c2)C(O)CNC2(c3cccc(C(C)(C)C)c3)CCCCC2)c1)S(C)(=O)=O (stereo not drawn) [Example 325A-2] | 3.1 |  |
| CC(C)(C)c1cccc(C2(NCC(O)C(Cc3cc(F)cc(F)c3)NC(=O)COCC(=O)O)CCCCC2)c1 (stereo not drawn) [Example 325A-3] | 2.0 |  |
| CC(C)(C)c1cccc(C2(NCC(O)C(Cc3cc(F)cc(F)c3)NC(=O)CCCC(=O)O)CCCCC2)c1 (stereo not drawn) [Example 325A-4] | 1.9 |  |
| CC(C)(CCC(=O)NC(Cc1cc(F)cc(F)c1)C(O)CNC1(c2cccc(C(C)(C)C)c2)CCCCC1)C(=O)O (stereo not drawn) [Example 325A-5] | 1.7 |  |
| CC(C)(C)c1cccc(C2(NCC(O)C(Cc3cc(F)cc(F)c3)NC(=O)c3csc(NS(C)(=O)=O)n3)CCCCC2)c1 (stereo not drawn) [Example 325A-6] | 5.0 |  |
| CC(C)(CCC(=O)NC(Cc1cc(F)cc(F)c1)C(O)CNC1(c2cccc(C(C)(C)C)c2)CCCCC1)C(=O)O (stereo not drawn) [Example 325B-1] |  | 8.3 |
| CC(C)(C)c1cccc(C2(NCC(O)C(Cc3cc(F)cc(F)c3)NC(=O)CCCC(=O)O)CCCCC2)c1 (stereo not drawn) [Example 325B-3] |  | 3.4 |
| CC(C)(C)c1cccc(C2(NCC(O)C(Cc3cc(F)cc(F)c3)NC(=O)COCC(=O)O)CCCCC2)c1 (stereo not drawn) [Example 325B-4] |  | 3.2 |
| CC(C)(C)c1cccc(C2(NCC(O)C(Cc3cc(F)cc(F)c3)NC(=O)c3csc(NS(C)(=O)=O)n3)CCCCC2)c1 (stereo not drawn) [Example 325B-5] |  | 1.2 |
